# Data reported in patent US7973219B2, “Method for producing transgenic plants resistant to weed control compounds which disrupt the porphyrin pathways of plants” (Sumitomo Chemical Company, Limited, priority 1998, dated 2011).
# Assays:
# [1] = system: tobacco bearing introduced both Arabidopsis thaliana PPO(A220V) gene and gene encoding the variant tobacco chelatase subunit; test: Leaf piece chlorophyll test, tobacco with PPO(A220V) gene and variant tobacco chelatase subunit gene; assay type: in vivo; conditions: 2.0 ppm, 7 days in a light place, Example 37
# From the text: Tobacco leaf pieces cultured sterilely were infected with the Agrobacterium strain and, according to the same manner as in Example 5, tobacco bearing the introduced both Arabidopsis thaliana PPO(A220V) gene and gene encoding the variant tobacco chelatase subunit was obtained.
# Leaves of the tobacco bearing the introduced both Arabidopsis thaliana PPO(A220V) gene and gene encoding the variant tobacco chelatase subunit produced in Example 36, those bearing the introduced Arabidopsis thaliana PPO(A220V) gene produced in Example 35, and the control recombinant tobacco leaves produced in Example 5were collected, and each leaf was divided into the right and left equivalent pieces along the main vein. One of the pieces was treated with an aqueous solution containing 2.0 ppm PPO inhibitory-type herbicidal compound of Structure 8, while the other piece was not treated with the compound. These leaf pieces were placed on MS medium containing 0.8% agar and allowed to stand at room temperature for 7 days in a light place. Then, each leaf piece was ground in 5 ml of 80% aqueous acetone solution in a mortar with a pestle to extract chlorophyll. The extract was diluted 10 times with 80% aqueous acetone solution and the absorbance was measured at 750 nm, 663 nm and 645 nm to calculate the total chlorophyll content according to the method described by Macknney G., J. Biol. Chem. (1941) 140, p 315. […]
# [2] = system: E. coli BT3/pACYCSP+pRASSL8 strain; test: Growth of E. coli BT3/pACYCSP+pRASSL8 with herbicidal compound; assay type: cell-based, Escherichia coli; conditions: 1 ppm, 18 hours culture, Table 16
# From the text: According to the description of Gibson, L. C. D. et al., Proc. Natl. Acad. Sci. USA, 92; p 1941 (1995), the DNA fragment containing bchH gene prepared in Example 1 was digested with the restriction enzymes NdeI and BglII. The resultant DNA fragment was inserted between NdeI restriction site and BamHI restriction site of expression vector pET11a (manufactured by Stratagene) to obtain plasmid pETBCH (FIG. 1). This plasmid pETBCH was introduced into E. coli BL21(DE3) strain competent cells (manufactured by Stratagene) according to the manual attached to the competent cells to obtain E. coli BL21(DE3)/pETBCH strain. […] When the absorbance at 600 nm of the liquid culture medium became about 0.6, isopropyl β-D-thiogalactopyranoside (IPTG) was added to the liquid culture medium so that the final concentration was 0.4 mM, and the culture was continued for about additional 20 hours. […]
# These E. coli strains were inoculated into YPT medium containing 1 ppm of the PPO inhibitory-type herbicidal compound represented by Structure 8, 100 μg/ml ampicillin, 15 μg/ml chloramphenicol, 10 μg/ml kanamycin, 10 μg/ml hemin and 50 μg/ml aminolevulinic acid, cultured under dark conditions or light conditions according to the same manner as in Example 2. Then, 18 hours after initiation of culture, the absorbance of the liquid culture medium was measured at 600 nm. […]
smiles,measurement,setting,value
C#CCOc1cc(N2C(=O)C3=C(CCCC3)C2=O)c(F)cc1Cl [Structure 8],resistant level,[1],61.6%
same,Relative absorbance,[2]; in the dark,1.0
same,Relative absorbance,[2]; in the light,0.79
